Test results taken from the supplement of paper PMC11919725.

Assays:
[1] = tested on: Jurkat; experiment: cytotoxicity relative to DMSO, 18 h (ratio); higher = less cell death (drugs called cytotoxic fall below 1)
How it was run: (§1)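 Jurkat cells or primary CD4+/CD8+ T cells, either naive or activated for 48 h with CD3/CD28 Dynabeads, were exposed to compound from 1 nM to 10 µM in log10 steps for 18 h at 37 °C, 5% CO2. Aliquots of 100 µl of suspension were then moved to 96-well plates containing IncuCyte Cytotox Dye at 250 nM final. Cytotoxicity was read by IncuCyte fluorescence imaging, with signals corrected for confluency and normalised to the mean of control wells.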

[2] = tested on: Primary T cells CD4+ naive; experiment: as above
How it was run: as §1

[3] = tested on: Jurkat; experiment: confluency relative to DMSO, 18 h (ratio); higher = more viable
How it was run: (§2)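 Naive or CD3/CD28 Dynabead-activated (48 h) primary CD4+/CD8+ T cells, or Jurkat cells, received compound at 1 nM–10 µM for 18 h at 37 °C. Confluency was measured by IncuCyte phase-contrast imaging with the Basic Analyzer and normalised to the mean of the control wells. Imaging used 100 µl of suspension per well in 96-well plates with IncuCyte Cytotox Dye and alamarBlue, at ×10 with five images per well every hour for 3 h.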

[4] = tested on: Primary T cells CD4+ naive; experiment: as above
How it was run: as §2

[5] = tested on: Jurkat; experiment: metabolic activity relative to DMSO, 18 h (ratio); higher = more viable
How it was run: (§3)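 Naive or CD3/CD28 Dynabead-activated (48 h) primary CD4+/CD8+ T cells, or Jurkat cells, received compound at 1 nM–10 µM for 18 h. Readout used alamarBlue at 10% v/v final, with fluorescence taken after 3.5 h. Metabolic activity is given relative to mean vehicle control values.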

[6] = tested on: Primary T cells CD4+ naive; experiment: as above
How it was run: as §3

[7] = tested on: Primary T cells CD4+ activated; experiment: as above
How it was run: as §3

SMILES | cytotoxicity ([1]; 1 nM) | cytotoxicity ([1]; 10 nM) | cytotoxicity ([1]; 100 nM) | cytotoxicity ([1]; 1000 nM) | cytotoxicity ([1]; 10000 nM) | cytotoxicity ([2]; 1 nM) | cytotoxicity ([2]; 10 nM) | cytotoxicity ([2]; 100 nM) | cytotoxicity ([2]; 1000 nM) | cytotoxicity ([2]; 10000 nM) | confluency ([3]; 1 nM) | confluency ([3]; 10 nM) | confluency ([3]; 100 nM) | confluency ([3]; 1000 nM) | confluency ([3]; 10000 nM) | confluency ([4]; 1 nM) | confluency ([4]; 10 nM) | confluency ([4]; 100 nM) | confluency ([4]; 1000 nM) | confluency ([4]; 10000 nM) | metabolic activity ([5]; 1 nM) | metabolic activity ([5]; 10 nM) | metabolic activity ([5]; 100 nM) | metabolic activity ([5]; 1000 nM) | metabolic activity ([5]; 10000 nM) | metabolic activity ([6]; 1 nM) | metabolic activity ([6]; 10 nM) | metabolic activity ([6]; 100 nM) | metabolic activity ([6]; 1000 nM) | metabolic activity ([6]; 10000 nM) | metabolic activity ([7]; 1 nM) | metabolic activity ([7]; 10 nM) | metabolic activity ([7]; 100 nM) | metabolic activity ([7]; 1000 nM) | metabolic activity ([7]; 10000 nM)
CCCCc1nc2cc(C=CC(=O)NO)ccc2n1CCN(CC)CC [Pracinostat] | 0.918 | 0.836 | 0.799 | 1.02 | 0.852 | 0.794 | 1.19 | 1.38 | 1.03 | 0.897 | 0.945 | 0.95 | 0.862 | 1.04 | 0.908 | 0.744 | 1.13 | 1.29 | 1.05 | 0.873 | 1.09 | 0.964 | 1.03 | 0.737 | 0.621 | 0.982 | 0.951 | 0.917 | 0.946 | 0.877 |  |  |  |  | 
CCN(c1cc(-c2ccc(CN3CCOCC3)cc2)cc(C(=O)NCc2c(C)cc(C)[nH]c2=O)c1C)C1CCOCC1 [Tazemetostat] | 0.997 | 0.928 | 0.843 | 0.912 | 1.05 |  |  |  |  |  | 0.999 | 0.961 | 0.898 | 0.926 | 0.97 |  |  |  |  |  | 0.926 | 0.932 | 0.939 | 1.12 | 1.24 |  |  |  |  |  |  |  |  |  | 
COC1CC2CCC(C)C(O)(O2)C(=O)C(=O)N2CCCCC2C(=O)OC(C(C)CC2CCC(OC(=O)C(C)(CO)CO)C(OC)C2)CC(=O)C(C)C=C(C)C(O)C(OC)C(=O)C(C)CC(C)C=CC=CC=C1C (stereo not given) [Temsirolimus] | 0.937 | 0.781 | 0.787 | 0.958 | 0.925 |  |  |  |  |  | 0.971 | 0.876 | 0.899 | 1.02 | 1.05 |  |  |  |  |  | 0.977 | 0.927 | 0.903 | 0.93 | 0.762 |  |  |  |  |  |  |  |  |  | 
O=C1CCC(N2C(=O)c3ccccc3C2=O)C(=O)N1 (stereo not given) [Thalidomide] | 0.981 | 1 | 1.1 | 0.991 | 0.855 |  |  |  |  |  | 0.954 | 0.93 | 1 | 0.99 | 0.975 |  |  |  |  |  | 1.17 | 1.26 | 1.27 | 1.13 | 0.925 |  |  |  |  |  |  |  |  |  | 
CC1CCN(C(=O)CC#N)CC1N(C)c1ncnc2[nH]ccc12 (stereo not given) [Tofacitinib] | 1.01 | 1.06 | 0.922 | 1.02 | 0.851 |  |  |  |  |  | 0.957 | 0.941 | 0.983 | 0.961 | 0.844 |  |  |  |  |  | 1.23 | 1.27 | 1.02 | 0.928 | 0.908 |  |  |  |  |  |  |  |  |  | 
CC(=O)Nc1cccc(-n2c(=O)n(C3CC3)c(=O)c3c(Nc4ccc(I)cc4F)n(C)c(=O)c(C)c32)c1 [Trametinib] | 1.14 | 1.12 | 1.26 | 1.12 | 1.02 |  |  |  |  |  | 1.01 | 1.03 | 1.05 | 1.03 | 1 |  |  |  |  |  | 1.12 | 1.08 | 1.15 | 1.1 | 1.02 |  |  |  |  |  |  |  |  |  | 
NC1CC1c1ccccc1 (stereo not given) [Tranylcypromine] | 0.98 | 0.941 | 1.15 | 1.08 | 0.956 |  |  |  |  |  | 0.972 | 0.963 | 0.998 | 1.02 | 1 |  |  |  |  |  | 1.02 | 0.916 | 1.14 | 1.08 | 0.962 |  |  |  |  |  |  |  |  |  | 
CC(C=CC(=O)NO)=CC(C)C(=O)c1ccc(N(C)C)cc1 (stereo not given) [Trichostatin-A] | 1.27 | 1.25 | 1.22 | 1.06 | 0.98 |  |  |  |  |  | 0.999 | 1.03 | 1.03 | 0.99 | 0.96 |  |  |  |  |  | 1.21 | 1.17 | 1.17 | 0.97 | 0.904 |  |  |  |  |  |  |  |  |  | 
CN1CCc2c(c3ccccc3n2Cc2ccc(C(=O)NO)cc2)C1 [Tubastatin A] | 1.04 | 1.02 | 1.05 | 0.953 | 0.893 |  |  |  |  |  | 0.97 | 0.971 | 0.987 | 0.932 | 0.841 |  |  |  |  |  | 1.23 | 1.23 | 1.24 | 1.15 | 1.19 |  |  |  |  |  |  |  |  |  | 
Nc1cc(F)ccc1NC(=O)c1ccc(CNC(=O)C=Cc2cccnc2)cc1 [Tucidinostat] | 1.08 | 0.992 | 0.929 | 0.871 | 0.987 | 1.13 | 1.05 | 1.42 | 1.19 | 0.636 | 1 | 0.981 | 0.912 | 0.878 | 1.03 | 1.08 | 1.18 | 1.3 | 1.26 | 0.617 | 0.891 | 0.945 | 0.974 | 0.952 | 0.882 | 0.862 | 1.05 | 0.872 | 0.881 | 0.697 |  |  |  |  | 
CC(C)Nc1cc(-c2c[nH]c(C(=O)NC(CO)c3cccc(Cl)c3)c2)c(Cl)cn1 (stereo not given) [Ulixertinib] | 0.973 | 1.01 | 0.93 | 0.998 | 0.777 |  |  |  |  |  | 1.02 | 1.06 | 0.999 | 1.11 | 0.826 |  |  |  |  |  | 1.05 | 1.02 | 0.828 | 0.866 | 0.878 |  |  |  |  |  |  |  |  |  | 
Cc1ncsc1-c1ccc(CNC(=O)C2CC(O)CN2C(=O)C(NC(=O)C2(C#N)CC2)C(C)(C)C)cc1 (stereo not given) [VH298] | 1 | 1.05 | 1.12 | 1.13 | 0.942 |  |  |  |  |  | 1.01 | 0.995 | 0.998 | 0.962 | 0.901 |  |  |  |  |  | 1.04 | 1.08 | 1.13 | 1.14 | 0.896 |  |  |  |  |  |  |  |  |  | 
Cc1ncsc1-c1ccc(CNC(=O)C2CC(O)CN2C(=O)C(N)C(C)(C)C)cc1 (stereo not given) [VHL ligand 1] | 1.01 | 0.955 | 0.949 | 0.966 | 0.948 |  |  |  |  |  | 1.01 | 1.01 | 1.03 | 1.02 | 1.02 |  |  |  |  |  | 1.06 | 1.01 | 1.06 | 0.989 | 1.05 |  |  |  |  |  |  |  |  |  | 
CC1(c2nc3c(C(N)=O)cccc3[nH]2)CCCN1 (stereo not given) [Veliparib] | 1.03 | 0.975 | 0.969 | 1.08 | 0.9 |  |  |  |  |  | 1.07 | 1.04 | 1.02 | 1.03 | 0.966 |  |  |  |  |  | 0.894 | 0.816 | 0.851 | 0.948 | 0.8 |  |  |  |  |  |  |  |  |  | 
CCC1(O)CC2CN(CCc3c([nH]c4ccccc34)C(C(=O)OC)(c3cc4c(cc3OC)N(C=O)C3C(O)(C(=O)OC)C(OC(C)=O)C5(CC)C=CCN6CCC43C65)C2)C1 (stereo not given) [Vincristine] | 0.824 | 0.698 | 0.662 | 0.611 | 0.585 |  |  |  |  |  | 0.98 | 0.875 | 0.82 | 0.781 | 0.762 |  |  |  |  |  | 0.536 | 0.402 | 0.366 | 0.394 | 0.412 |  |  |  |  |  |  |  |  |  | 
O=C(CCCCCCC(=O)Nc1ccccc1)NO [Vorinostat] |  |  |  |  |  |  |  |  |  |  | 1.03 | 1 | 1.14 | 1.11 | 1.36 |  |  |  |  |  | 0.947 | 0.907 | 0.815 | 0.809 | 0.764 | 0.859 | 0.862 | 0.902 | 1.02 | 0.913 | 0.849 | 0.979 | 0.964 | 0.945 | 0.788
CCn1c(=O)c(-c2ccn[nH]2)cc2c(C)nc(N)nc21 [Voxtalisib] | 0.985 | 0.977 | 0.966 | 0.943 | 1.02 |  |  |  |  |  | 1 | 1.01 | 1.02 | 1.02 | 1.04 |  |  |  |  |  | 1.05 | 1.02 | 0.993 | 0.924 | 1 |  |  |  |  |  |  |  |  |  | 
CN1CC=CCCOc2cccc(c2)-c2ccnc(n2)Nc2cccc(c2)C1 [Zotiraciclib] | 0.95 | 0.924 | 0.468 | 0.473 | 0.436 |  |  |  |  |  | 0.992 | 0.992 | 0.923 | 0.908 | 0.882 |  |  |  |  |  | 1.03 | 0.912 | 0.094 | 0.085 | 0.05 |  |  |  |  |  |  |  |  |  | 
